Results from patent US20180008593A1 (Purdue Pharma L.P., priority 2005, published 2018).

Assays:
[1] = tested on: experimental human pain model, healthy volunteers; assay: Pain-related evoked potentials (EEG) after CO2 stimulation of the nasal mucosa, Example 4; type: in vivo
Procedure: This was a single site, single dose, double blind, placebo-controlled, 5-treatment, 5-period, randomized, balanced crossover study in healthy adult male and female subjects. […] Subjects were allocated each of the 5 treatments described in the synopsis according to a random allocation schedule (RAS). There was a 7-day washout period
Analgesic effects were assessed by means of an experimental human pain model based on the chemosomatosensory pain-related cortical potentials (CSSEPs) and pain-ratings after specific phasic nociceptive stimulation of the nasal mucosa with gaseous CO2. In addition, intensity estimates of tonic pain produced by stimulation of the nasal mucosa with dry air at controlled flow and temperature were employed.
Within the present pain model, the following were used as indicators of analgesia: • post-treatment decrease in pain-ratings and/or • post-treatment decrease in amplitudes of pain-related evoked potentials and/or • post-treatment increase in latencies of pain-related evoked potentials, relative to the pretreatment values.
1. Base-to-peak amplitudes P1, N1 and P2, peak-to-peak amplitudes P1 N1 and N1P2 of pain related evoked potentials 2. Latencies P1, N1 and P2 of pain-related evoked potentials 3. Intensity estimates of phasic (C02-) pain 4. Intensity estimates of tonic pain
In the first 20 minutes, 40 phasic CO2-stimuli were applied (20 stimuli at a concentration of 70% and 20 at a concentration of 60%, interstimulus interval 30 s). In response to these stimuli, pain-related potentials and subjective intensity estimates were recorded.
CO2-stimuli were mixed in a constantly flowing air stream with controlled temperature (36.5° C.) and humidity (80% relative humidity) presented to the left nostril (stimulus duration 200 ms, interstimulus interval 30 s). […] During intervals between phasic stimuli subjects performed a simple tracking task on a video screen. Using a joystick, they had to keep a small square inside a larger one that randomly moved around.
The EEG was recorded from 5 positions of the international 10/20 system (Cz, C3, C4, Fz and Pz; see FIG. 40) referenced to linked earlobes (A1+A2). Possible eye blink artifacts were monitored from an additional site (Fp2/A1+A2). Stimulus linked EEG segments of 2040 ms duration were sampled with a frequency of 250 Hz (band pass 0.2-30 Hz, pre-stimulus period 512 ms). The recorded analog EEG segments were then converted to digital and filed electronically. The average value for each recording position was separately calculated, discarding all eye blink contaminated records. By this procedure pain-related evoked potentials were obtained in response to the painful CO2 stimuli. Base to peak amplitudes P1, N1 and P2, the peak to peak amplitudes P1 N1 and N1 P2 and the latencies of P1, […] and P2 were measured. Wherever the time of measurement was used in the data analysis, the mid-time of a session was taken. FIG. 40 presents the components of the pain-related evoked potentials.

[2] = tested on: oxycodone-pump and vehicle-pump implanted rats; assay: Oxycodone tolerance: tail withdrawal dose response in pump-implanted rats, Example 5; type: in vivo, rat
Procedure: Animals were randomized and acclimated for one week as described in Section 3.1. Vehicle control pumps contained sterile filtered isotonic saline. Alzet 2ML 1 osmotic mini pumps were loaded with oxycodone solution as described in “Alzet Osmotic Minipumps: Technical Information Manual” from DURECT Corp., Cupertino, Calif. The loaded pumps were primed by placing them in sterile isotonic saline at 37° […] for 3-h before implanting them in the rats. The rats were briefly anesthetized with isoflurane USP (Henry Schein, Inc. Melville, N.Y., U.S.A.) for implantation of 2ML 1 osmotic minipumps that deliver at a rate […]. After induction of anesthesia (as noted by the absence of the righting reflex and foot pinch response). Sterile scissors were used to make a 1.5 cm incision that was expanded under the skin with hemostats in a caudal direction to open the subcutaneous space for the pump. A sterile 2ML 1 pump was then inserted under the skin and moved to the dorsum. The rats were returned to their home cages and monitored until they completely recovered from anesthesia. Pump delivery began at 4-h (DU REGT Corp.) allowing the rats 1-h to recover from the anesthesia. Therefore, time zero began 1-h after implantation of the pumps. The rats were monitored daily for signs of distress, drug toxicity, or problems with the surgical site.
If the value was below 50% then the predicted level of tolerance was greater than 10-fold. The infusion dose that elicited approximately a 50% MPE with the challenge was selected as the 10-fold model of tolerance.
After this, the individual groups (8/group) were challenged with increasing doses of oxycodone for construction of a dose-response curve for calculation of the ED80 value. Potency-ratio determinations were made between the oxycodone-pump and vehicle-pump groups.

[3] = tested on: patients with severe chronic pain; assay: Incidence and duration of diarrhea and discontinuations due to diarrhea, Example 1; settings: naloxone 0 mg
male Sprague-Dawley rats = assay: 51° C. warm-water tail withdrawal test, i.v. oxycodone in opioid naive rats, Example 5
[4] = 0.3 mg/kg oxycodone free-base i.v.

Structure (SMILES): COc1ccc2c3c1O[C@H]1C(=O)CC[C@@]4(O)[C@@H](C2)N(C)CC[C@]314 [Oxycodone, oxycodone]
- Magnitude of reduction of amplitude P1N1 at C4 compared to baseline ([1]; 60% CO2, 20 mg oxycodone): 35.3%
- Amplitude P1N1 of pain-related evoked potentials ([1]; 60% CO2, recording position C4): significant compared to placebo
- Latency P1 of pain-related evoked potentials ([1]; 60% CO2, recording position C4): significant compared to placebo
- Latency P1 of pain-related evoked potentials ([1]; 60% CO2, recording position Pz): significant compared to placebo
- Latency P1 of pain-related evoked potentials ([1]; 70% CO2, recording position C3): significant compared to placebo
- Latency P1 of pain-related evoked potentials ([1]; 70% CO2, recording position Cz): significant compared to placebo
- Latency P2 of pain-related evoked potentials ([1]; 70% CO2, recording position Cz): significant compared to placebo
- Latency P1 of pain-related evoked potentials ([1]; 70% CO2, recording position Fz): significant compared to placebo
- Latency P1 of pain-related evoked potentials ([1]; 70% CO2, recording position Pz): significant compared to placebo
- Latency P2 of pain-related evoked potentials ([1]; 70% CO2, recording position Pz): significant compared to placebo
- Rightward shift in the oxycodone dose-response curve (tolerance) ([2]; 7-day oxycodone infusion […] vs vehicle pump): 8.5 fold
- ED50 ([2]; Rattus norvegicus, iv, i.v. oxycodone, vehicle-pump implanted rats, read-out: ED50 value (antinociception)): 0.32 mg/kg
- % MPE on challenge with […] oxycodone ([2]; after s.c. oxycodone infusion […] for 7 days): ~50 % MPE
- Discontinuations due to Diarrhea, n/N ([3]; daily oxycodone 40 mg): 0/17
- Incidence of Discontinuations due to Diarrhea ([3]; daily oxycodone 40 mg): (0.0%)
- Discontinuations due to Diarrhea, n/N ([3]; daily oxycodone 60 mg): 0/17
- Incidence of Discontinuations due to Diarrhea ([3]; daily oxycodone 60 mg): (0.0%)
- Discontinuations due to Diarrhea, n/N ([3]; daily oxycodone 80 mg): 0/16
- Incidence of Discontinuations due to Diarrhea ([3]; daily oxycodone 80 mg): (0.0%)
- First test point at which antinociception was present (male Sprague-Dawley rats; [4]): 2.5 min
- Obvious signs (sedation, motor control, respiration, toxicity) (male Sprague-Dawley rats; [4]): no obvious signs were noted
- Time antinociception stayed significantly above baseline latencies (male Sprague-Dawley rats; [4]): 40 min
- Peak time of antinociception (male Sprague-Dawley rats; 0.3 mg/kg oxycodone free-base i.v., 51° C. tail withdrawal): 10 min
- ED80 value (antinociception) (male Sprague-Dawley rats; oxycodone free-base i.v., tested at 10-min): 0.41 mg/kg
